Assay results from patent US6686181B1, “Method for the production of L-amino acids from their racemic N-aceytyl-D, L-derivatives by enzymatic racemate cleavage by means of isolated recombinant enzymes” (Aventis Corporation GmbH, priority 1999, dated 2004).

Test system: deac1 protein
Test: Substrate specificity and stereoselectivity of the purified deac1 enzyme (free amino acid formed, amino acid analyzer)
Assay type: biochemical, Stenotrophomonas sp.
Conditions: 5 μg purified enzyme, 25 mM substrate, pH 7.5, 37° C., 1 h; specific activity with hippuric acid set equal to 100%
Method: For the investigation of substrate specificity and stereospecificity of the deac1 protein, 5 μg each of purified enzyme were incubated in 20 μl batches in 10 mM NaCl, 10 mM Na phosphate, pH=7.5 with 25 mM each of the N-acetyl-L-amino acids or of the corresponding D enantiomers mentioned in Table 1. For comparison, hippuric acid (N-benzoylglycine), the natural substrate of deacetylase, was employed. […] Table 1 indicates the relative deacetylase activities for the L-enantiomers of the various substrates.

SMILES | Rel. activity
CC(=O)N[C@@H](Cc1c[nH]c2ccccc12)C(=O)O [N-Ac-L-tryptophan] | 0.4%
CC(=O)N[C@@H](Cc1ccccc1)C(=O)O [N-Ac-L-phenylalanine] | 24%
CSCC[C@H](NC(C)=O)C(=O)O [N-Ac-L-methionine] | 0%

Now from value to compound:

Rel. activity | SMILES
0% | CC(=O)N1CCC[C@H]1C(=O)O [N-Ac-L-proline]
4% | CC(=O)N[C@@H](CO)C(=O)O [N-Ac-L-serine]

Same assay, conditions: 25 mM substrate, 37° C., 1 h

SMILES | cleavage of substrate by the deac1 enzyme (in words)
CC(=O)N[C@@H](CCCN)C(=O)O [N-Ac-L-ornithine] | cleaves
CC(=O)N[C@@H](CCP(C)(=O)O)C(=O)O [N-Ac-L-phosphinothricin] | cleaves
CC(=O)N[C@@H](Cc1c[nH]cn1)C(=O)O [N-Ac-L-histidine] | cleaves
CC(=O)N[C@@H](Cc1ccccc1)C(=O)O [N-Ac-L-phenylalanine] | cleaves
O=C(O)CNC(=O)c1ccccc1 [Hippuric acid (N-benzoylglycine), N-benzoylglycine, reference compound] | cleaves

Results, then the compound that gave them:

cleavage of substrate by the deac1 enzyme (in words) | SMILES
cleaves | CC(=O)N[C@@H](CC(C)C)C(=O)O [N-Ac-L-leucine]
cleaves | CC(=O)N[C@@H](CCC(=O)O)C(=O)O [N-Ac-L-glutamic acid]
cleaves | CC(=O)N[C@@H](CCC(N)=O)C(=O)O [N-Ac-L-glutamine]
cleaves | CC(=O)NCC(=O)O [N-Ac-glycine]
